The text below walks through data of ChEMBL document CHEMBL5055644, “Cysteine derivatives as acetyl lysine mimics to inhibit zinc-dependent histone deacetylases for treating cancer” (Eur J Med Chem, 2021).

The source made the active and inactive calls. The rule behind the calls is not given here.

One series addresses Histone deacetylase 9 (Homo sapiens, UniProt Q9UKV0). The series can be described thus: Inhibition of human C-terminal His-tagged HDAC9 (604 to 1066 residues) expressed in baculovirus infected Sf9 insect cells using Boc-Lys(acetyl)-AMC as fluorogenic substrate measured after 1 hr by flourescence plate reader method.
Series [1] concerns A549. The series can be described thus: cells. Format: functional. The conditions noted are these: Homo sapiens, time 48 hrs.
Description: Antiproliferative activity against human A549 cells assessed as inhibition of cell proliferation incubated for 48 hrs by CCK8 assay
The subject of series [2] is K562. Description: cells. The conditions noted are these: Homo sapiens, time 48 hrs. Type of series: functional.
Description: Antiproliferative activity against human K562 cells assessed as inhibition of cell proliferation incubated for 48 hrs by CCK8 assay
A further series addresses Histone deacetylase 5 (Homo sapiens, UniProt Q9UQL6). Description: Inhibition of human HDAC5 using Boc-Lys(acetyl)-AMC as fluorogenic substrate measured after 1 hr by flourescence plate reader method.
The target in series [3] is T1, Protein deacetylase HDAC6 (Homo sapiens, UniProt Q9UBN7).
T1 sequence (Q9UBN7 whole entry): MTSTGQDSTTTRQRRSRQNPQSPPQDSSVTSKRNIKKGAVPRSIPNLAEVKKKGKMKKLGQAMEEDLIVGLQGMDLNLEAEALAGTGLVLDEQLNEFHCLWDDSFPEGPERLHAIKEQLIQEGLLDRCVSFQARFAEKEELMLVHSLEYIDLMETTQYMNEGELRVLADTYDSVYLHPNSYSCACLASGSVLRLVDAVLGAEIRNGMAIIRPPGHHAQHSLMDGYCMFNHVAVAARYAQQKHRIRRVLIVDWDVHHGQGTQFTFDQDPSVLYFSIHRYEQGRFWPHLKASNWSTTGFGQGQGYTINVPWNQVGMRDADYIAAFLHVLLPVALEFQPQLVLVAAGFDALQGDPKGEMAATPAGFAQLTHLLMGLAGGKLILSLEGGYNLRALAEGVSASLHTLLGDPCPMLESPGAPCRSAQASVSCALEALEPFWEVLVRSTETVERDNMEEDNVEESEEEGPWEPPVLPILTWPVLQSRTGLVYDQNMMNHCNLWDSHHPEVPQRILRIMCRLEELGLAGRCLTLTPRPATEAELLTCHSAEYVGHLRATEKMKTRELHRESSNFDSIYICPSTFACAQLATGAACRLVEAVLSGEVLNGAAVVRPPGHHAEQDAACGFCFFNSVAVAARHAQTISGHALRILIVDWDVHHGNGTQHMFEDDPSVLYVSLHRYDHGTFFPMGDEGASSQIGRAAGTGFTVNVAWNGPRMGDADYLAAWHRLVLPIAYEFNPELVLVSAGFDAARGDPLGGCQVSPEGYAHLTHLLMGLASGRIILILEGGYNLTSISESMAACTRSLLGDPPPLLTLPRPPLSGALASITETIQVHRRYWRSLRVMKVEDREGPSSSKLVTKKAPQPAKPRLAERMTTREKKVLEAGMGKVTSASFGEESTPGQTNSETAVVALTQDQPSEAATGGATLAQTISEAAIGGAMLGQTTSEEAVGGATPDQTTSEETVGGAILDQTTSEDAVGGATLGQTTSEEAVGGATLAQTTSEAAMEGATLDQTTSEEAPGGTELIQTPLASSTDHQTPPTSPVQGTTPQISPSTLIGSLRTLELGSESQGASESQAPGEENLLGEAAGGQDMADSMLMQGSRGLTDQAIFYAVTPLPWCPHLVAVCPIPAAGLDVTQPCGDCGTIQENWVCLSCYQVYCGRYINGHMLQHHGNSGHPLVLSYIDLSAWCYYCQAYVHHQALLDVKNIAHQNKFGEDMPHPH
Description: Inhibition of HDAC6 (unknown origin) using Boc-Lys(acetyl)-AMC as fluorogenic substrate measured after 1 hr by flourescence plate reader method.

In series [4] the target is T2, Class 1 histone deacetylase (Homo sapiens) (UniProt Q13547+O15379+Q92769+Q9BY41). The series can be described thus: Inhibition of class 1 HDAC in human MCF7 cells assessed as increase in histone H4 acetylation at 10 uM measured after 8 hrs by Western blot analysis. Type of series: cell-based. In general terms: Immunoblotting shows a protein as a band on a membrane.

For another series, the target named is Histone deacetylase 4 (Homo sapiens, UniProt P56524). Description: Inhibition of human HDAC4 using Boc-Lys(acetyl)-AMC as fluorogenic substrate measured after 1 hr by flourescence plate reader method.
In another series the test system is MCF7. Description: cells. Type of series: functional. The conditions noted are these: Homo sapiens, time 48 hrs.
The target in series [5] is Histone deacetylase (Homo sapiens) (UniProt Q13547+O15379+Q9UBN7+Q92769+Q9UQL6+Q8WUI4+Q9BY41+Q96DB2+P56524+Q9UKV0+Q969S8). Description: Inhibition of HDAC in human HeLa nuclear extract at 1 uM using Boc-Lys(acetyl)-AMC as fluorogenic substrate measured after 1 hr by flourescence plate reader method relative to control. Format: subcellular. The conditions noted are these: Nucleus.

Series [6] deals with T2, Class 1 histone deacetylase (Homo sapiens). Description: Inhibition of class 1 HDAC in human MCF7 cells assessed as increase in histone H3 acetylation at 10 uM measured after 8 hrs by Western blot analysis. Type of series: cell-based.
For series [7], the target named is T3, Protein deacetylase HDAC6 (Homo sapiens) (UniProt Q9UBN7).
T3 sequence (whole entry): T1 sequence (Q9UBN7 whole entry)
The series can be described thus: Inhibition of HDAC6 in human MCF7 cells assessed as increase in alpha tubulin acetylation at 10 uM measured after 8 hrs by Western blot analysis. Format: cell-based.

Series [8] has as its target T2, Class 1 histone deacetylase (Homo sapiens). The series can be described thus: Inhibition of class 1 HDAC in human K562 cells assessed as increase in histone H3 acetylation at 10 uM measured after 8 hrs by Western blot analysis. Format: cell-based.
For another series, the system named is HepG2. The series can be described thus: cells. Type of series: functional. The conditions noted are these: Homo sapiens, time 48 hrs.
Series [9] addresses T2, Class 1 histone deacetylase (Homo sapiens). The series can be described thus: Inhibition of class 1 HDAC in human K562 cells assessed as increase in histone H4 acetylation at 10 uM measured after 8 hrs by Western blot analysis. Type of series: cell-based.
Another series concerns the target Histone deacetylase. Description: Inhibition of HDAC in human HeLa nuclear extract using Boc-Lys(acetyl)-AMC as fluorogenic substrate measured after 1 hr by flourescence plate reader method. Type of series: subcellular, Nucleus.
The target in series [10] is Histone deacetylase 3/Nuclear receptor corepressor 2 (HDAC3/NCoR2) (Homo sapiens, UniProt O15379). Description: Inhibition of C-terminal His-tagged recombinant human HDAC3 (1 to 428 residues)/N-terminal GST-tagged recombinant human NCoR2 (395 to 489 residues) co-expressed in baculovirus infected Sf9 cells using Boc-Lys(acetyl)-AMC as fluorogenic substrate measured after 1 hr by flourescence plate reader method.

A short description of series [11]: Half life in human liver microsomes. Format: ADME, Microsome. For orientation: Microsomes from liver hold many membrane-bound enzymes, among them those of drug oxidation.
The nature of series [12]: Half life in mouse liver microsomes. Format: ADME, Microsome.
For series [13], the system named is A549. The series can be described thus: Antitumor activity against human A549 cells xenografted in BALB/c mouse assessed as tumor growth inhibition at low dose when administered intratumorally for 21 days relative to control. The conditions noted are these: route it(Intratumoral); time 21 day. Format: functional. (In general: Xenograft models place foreign cells or tissue in a host animal.)

The subject of series [14] is A549. Description: Upregulation of p21 in human A549 cells up to 10 uM measured after 8 hrs by Western blot analysis. Format: functional, cell-based.
Series [15] deals with A549. The series can be described thus: Induction of apoptosis in human A549 cells at 1 to 10 uM after 48 hrs by Annexin-V/propidium iodide staining based flow cytometric analysis. Type of series: functional, cell-based. The conditions noted are these: dose 1-10 µM.
Series [16] concerns K562. The series can be described thus: Induction of apoptosis in human K562 cells assessed as increased cleaved caspase 9 at 10 uM measured after 8 hrs by Western blot analysis. Type of series: functional, cell-based.
In series [17] the target is T3, Protein deacetylase HDAC6 (Homo sapiens). Description: Inhibition of HDAC6 in human A549 cells assessed as increase in alpha tubulin acetylation measured after 24 hrs by Immunofluorescent assay. Format: cell-based.

Chain of Histone deacetylase 5 (Q9UQL6 whole entry): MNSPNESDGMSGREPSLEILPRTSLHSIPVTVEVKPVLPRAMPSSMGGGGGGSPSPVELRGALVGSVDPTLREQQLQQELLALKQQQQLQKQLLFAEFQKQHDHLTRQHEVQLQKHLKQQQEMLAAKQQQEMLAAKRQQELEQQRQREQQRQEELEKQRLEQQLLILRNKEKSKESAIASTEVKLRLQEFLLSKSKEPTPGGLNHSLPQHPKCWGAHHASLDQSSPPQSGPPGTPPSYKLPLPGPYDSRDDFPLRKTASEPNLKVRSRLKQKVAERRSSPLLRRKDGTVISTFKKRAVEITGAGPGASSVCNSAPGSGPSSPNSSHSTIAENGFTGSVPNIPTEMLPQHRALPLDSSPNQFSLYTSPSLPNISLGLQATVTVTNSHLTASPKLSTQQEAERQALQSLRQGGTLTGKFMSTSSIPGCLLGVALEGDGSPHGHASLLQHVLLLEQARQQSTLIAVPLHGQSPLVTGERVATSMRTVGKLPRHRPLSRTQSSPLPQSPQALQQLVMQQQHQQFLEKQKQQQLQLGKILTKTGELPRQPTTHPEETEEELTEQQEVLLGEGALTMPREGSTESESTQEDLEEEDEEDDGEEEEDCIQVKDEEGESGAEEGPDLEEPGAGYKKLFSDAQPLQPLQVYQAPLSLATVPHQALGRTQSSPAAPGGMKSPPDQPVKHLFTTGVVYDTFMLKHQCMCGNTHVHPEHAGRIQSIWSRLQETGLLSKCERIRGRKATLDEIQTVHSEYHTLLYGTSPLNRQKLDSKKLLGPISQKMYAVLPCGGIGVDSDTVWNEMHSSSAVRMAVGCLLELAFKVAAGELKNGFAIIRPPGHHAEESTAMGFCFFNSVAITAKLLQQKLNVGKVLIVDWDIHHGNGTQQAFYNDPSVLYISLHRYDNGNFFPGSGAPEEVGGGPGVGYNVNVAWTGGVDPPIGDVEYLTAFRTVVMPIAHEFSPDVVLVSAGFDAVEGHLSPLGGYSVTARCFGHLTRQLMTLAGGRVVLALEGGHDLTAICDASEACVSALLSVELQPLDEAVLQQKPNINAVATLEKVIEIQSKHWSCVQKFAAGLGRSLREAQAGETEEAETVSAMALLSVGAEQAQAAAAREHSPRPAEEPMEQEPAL
Chain of Histone deacetylase 4 (P56524 whole entry): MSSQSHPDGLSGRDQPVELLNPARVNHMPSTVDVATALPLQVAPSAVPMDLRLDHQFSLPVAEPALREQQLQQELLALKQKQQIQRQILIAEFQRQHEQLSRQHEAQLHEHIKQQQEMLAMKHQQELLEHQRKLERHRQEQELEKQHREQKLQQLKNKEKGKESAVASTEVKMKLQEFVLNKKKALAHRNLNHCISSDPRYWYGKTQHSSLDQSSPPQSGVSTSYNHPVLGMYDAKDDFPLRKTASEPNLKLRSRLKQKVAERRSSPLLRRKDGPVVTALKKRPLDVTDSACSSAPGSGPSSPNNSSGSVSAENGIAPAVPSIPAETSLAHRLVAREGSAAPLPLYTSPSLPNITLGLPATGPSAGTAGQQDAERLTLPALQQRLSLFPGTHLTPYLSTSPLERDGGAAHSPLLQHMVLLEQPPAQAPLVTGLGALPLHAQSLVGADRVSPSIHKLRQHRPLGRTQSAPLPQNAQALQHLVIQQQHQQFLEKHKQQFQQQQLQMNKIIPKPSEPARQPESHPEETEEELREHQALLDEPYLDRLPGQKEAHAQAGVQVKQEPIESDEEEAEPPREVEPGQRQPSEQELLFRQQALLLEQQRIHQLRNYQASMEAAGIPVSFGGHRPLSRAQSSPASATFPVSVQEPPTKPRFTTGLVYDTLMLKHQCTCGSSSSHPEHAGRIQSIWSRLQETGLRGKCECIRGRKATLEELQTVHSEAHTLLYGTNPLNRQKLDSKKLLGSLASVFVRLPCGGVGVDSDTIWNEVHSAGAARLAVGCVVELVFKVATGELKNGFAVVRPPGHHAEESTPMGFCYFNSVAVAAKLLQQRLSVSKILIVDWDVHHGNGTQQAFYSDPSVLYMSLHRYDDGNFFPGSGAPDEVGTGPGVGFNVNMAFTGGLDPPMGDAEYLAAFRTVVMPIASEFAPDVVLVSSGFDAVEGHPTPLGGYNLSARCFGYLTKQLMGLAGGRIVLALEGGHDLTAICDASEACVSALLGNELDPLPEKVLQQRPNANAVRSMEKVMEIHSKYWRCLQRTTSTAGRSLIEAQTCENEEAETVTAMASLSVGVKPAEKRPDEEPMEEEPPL
Chain of Histone deacetylase 3/Nuclear receptor corepressor 2 (HDAC3/NCoR2) (O15379 whole entry, the tested form may be a part): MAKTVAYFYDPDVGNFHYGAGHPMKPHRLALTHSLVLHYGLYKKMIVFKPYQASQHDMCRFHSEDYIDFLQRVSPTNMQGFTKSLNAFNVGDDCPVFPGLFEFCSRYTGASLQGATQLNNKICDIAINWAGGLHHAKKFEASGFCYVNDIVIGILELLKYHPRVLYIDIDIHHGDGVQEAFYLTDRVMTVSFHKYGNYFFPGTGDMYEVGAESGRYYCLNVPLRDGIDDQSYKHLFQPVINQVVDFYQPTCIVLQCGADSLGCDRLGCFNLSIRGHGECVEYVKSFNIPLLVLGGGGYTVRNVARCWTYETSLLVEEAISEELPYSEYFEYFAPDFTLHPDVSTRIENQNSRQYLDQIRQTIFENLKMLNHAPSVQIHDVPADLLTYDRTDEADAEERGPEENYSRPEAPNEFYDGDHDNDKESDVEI
Chain of Histone deacetylase 3/Nuclear receptor corepressor 2 (HDAC3/NCoR2) (Q9Y618 whole entry, further chain, the tested form may be a part): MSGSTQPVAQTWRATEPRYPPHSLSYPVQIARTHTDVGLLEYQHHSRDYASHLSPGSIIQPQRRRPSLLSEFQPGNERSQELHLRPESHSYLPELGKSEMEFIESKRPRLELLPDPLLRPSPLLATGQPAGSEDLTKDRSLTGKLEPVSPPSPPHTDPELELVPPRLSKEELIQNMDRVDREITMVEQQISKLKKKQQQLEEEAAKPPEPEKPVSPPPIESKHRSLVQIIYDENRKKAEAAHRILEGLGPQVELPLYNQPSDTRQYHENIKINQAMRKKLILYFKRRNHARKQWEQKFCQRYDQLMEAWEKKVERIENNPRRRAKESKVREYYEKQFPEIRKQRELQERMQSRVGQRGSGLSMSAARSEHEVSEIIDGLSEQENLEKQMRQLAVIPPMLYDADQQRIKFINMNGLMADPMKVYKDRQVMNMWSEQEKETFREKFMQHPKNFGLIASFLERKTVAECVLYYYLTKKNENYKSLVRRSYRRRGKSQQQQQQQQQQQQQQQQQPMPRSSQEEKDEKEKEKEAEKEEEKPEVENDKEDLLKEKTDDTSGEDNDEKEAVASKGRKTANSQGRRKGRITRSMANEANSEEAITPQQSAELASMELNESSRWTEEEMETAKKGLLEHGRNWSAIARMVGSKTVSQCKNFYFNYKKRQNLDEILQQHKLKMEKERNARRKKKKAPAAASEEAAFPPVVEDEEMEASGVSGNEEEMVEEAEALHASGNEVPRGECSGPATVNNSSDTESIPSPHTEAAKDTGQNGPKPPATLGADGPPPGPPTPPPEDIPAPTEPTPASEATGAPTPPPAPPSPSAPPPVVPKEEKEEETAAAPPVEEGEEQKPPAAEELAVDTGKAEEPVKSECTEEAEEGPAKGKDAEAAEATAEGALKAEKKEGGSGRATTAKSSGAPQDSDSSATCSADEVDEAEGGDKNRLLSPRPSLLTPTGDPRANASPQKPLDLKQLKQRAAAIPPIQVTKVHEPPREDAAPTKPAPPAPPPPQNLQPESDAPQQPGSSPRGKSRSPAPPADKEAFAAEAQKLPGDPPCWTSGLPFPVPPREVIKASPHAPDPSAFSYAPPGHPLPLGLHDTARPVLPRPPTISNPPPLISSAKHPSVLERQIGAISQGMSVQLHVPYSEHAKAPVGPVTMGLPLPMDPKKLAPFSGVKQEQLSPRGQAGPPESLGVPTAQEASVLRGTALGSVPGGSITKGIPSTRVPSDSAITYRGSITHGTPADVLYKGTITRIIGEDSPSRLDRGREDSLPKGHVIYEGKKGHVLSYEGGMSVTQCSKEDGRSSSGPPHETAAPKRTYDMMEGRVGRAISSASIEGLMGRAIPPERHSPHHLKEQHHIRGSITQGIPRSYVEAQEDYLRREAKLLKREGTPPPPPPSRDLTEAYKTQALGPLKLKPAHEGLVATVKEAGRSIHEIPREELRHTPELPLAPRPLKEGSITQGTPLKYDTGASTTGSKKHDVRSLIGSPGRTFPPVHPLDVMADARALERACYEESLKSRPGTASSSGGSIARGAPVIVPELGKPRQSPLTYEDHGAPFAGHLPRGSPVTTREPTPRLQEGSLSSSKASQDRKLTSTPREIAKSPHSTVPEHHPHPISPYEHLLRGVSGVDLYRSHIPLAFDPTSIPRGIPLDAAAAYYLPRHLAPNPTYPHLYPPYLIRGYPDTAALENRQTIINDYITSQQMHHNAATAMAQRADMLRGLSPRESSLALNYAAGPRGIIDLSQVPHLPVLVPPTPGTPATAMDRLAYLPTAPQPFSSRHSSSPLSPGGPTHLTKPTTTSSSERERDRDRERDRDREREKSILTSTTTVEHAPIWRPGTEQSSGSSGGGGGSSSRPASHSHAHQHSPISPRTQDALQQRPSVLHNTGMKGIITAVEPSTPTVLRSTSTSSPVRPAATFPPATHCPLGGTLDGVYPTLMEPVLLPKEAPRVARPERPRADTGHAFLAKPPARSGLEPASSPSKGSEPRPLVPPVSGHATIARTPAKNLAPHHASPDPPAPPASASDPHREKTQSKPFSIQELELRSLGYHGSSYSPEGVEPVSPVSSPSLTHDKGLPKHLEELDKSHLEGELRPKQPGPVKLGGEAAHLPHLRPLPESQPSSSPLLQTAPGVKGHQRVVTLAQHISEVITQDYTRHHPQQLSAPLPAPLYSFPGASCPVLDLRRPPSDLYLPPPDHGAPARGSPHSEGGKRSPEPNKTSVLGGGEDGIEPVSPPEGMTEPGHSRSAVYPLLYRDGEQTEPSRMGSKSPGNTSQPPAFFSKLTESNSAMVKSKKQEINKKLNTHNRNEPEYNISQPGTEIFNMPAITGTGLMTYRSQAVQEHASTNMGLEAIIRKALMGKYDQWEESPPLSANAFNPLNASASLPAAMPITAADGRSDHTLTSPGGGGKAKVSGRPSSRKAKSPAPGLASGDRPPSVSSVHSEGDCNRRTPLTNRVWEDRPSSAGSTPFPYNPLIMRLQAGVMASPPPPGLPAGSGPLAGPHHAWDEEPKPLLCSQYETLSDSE
Description for HepG2: Antiproliferative activity against human HepG2 cells assessed as inhibition of cell proliferation incubated for 48 hrs by CCK8 assay
Description for MCF7: Antiproliferative activity against human MCF-7 cells assessed as inhibition of cell proliferation incubated for 48 hrs by CCK8 assay

Usually IC50 stands for the concentration that gives 50% inhibition. The term GI50 denotes the concentration giving 50% growth inhibition. The inhibition is the percentage by which the read-out fell short of the control. For `O=C(CCCSC[C@H](NC(=O)OCc1ccccc1)C(=O)Nc1ccccc1)NO`, the IC50 at Histone deacetylase 9 was > 200 nM; against Histone deacetylase 5, > 200 nM; in series [3], 20.6 nM; on Histone deacetylase 4, > 200 nM; against Histone deacetylase, 75.1 nM; in series [10] it was 108 nM. The GI50 amounted to 3500 nM with A549 [1], 1700 nM in the series on K562 [2], 4700 nM with MCF7 and 7300 nM in the series with HepG2. Besides, the inhibition result in series [4], in series [6], in series [7], in [8] and in series [9] was “Active” in each case. The inhibition in series [5] came to 84%.

Usually half-life stands for the time in which the quantity being followed falls by half. Read a high half-life as slow loss. For orientation: TGI means the reduction of tumour growth relative to the control group. Consider `O=C(CCCSC[C@H](NC(=O)c1ccccc1)C(=O)Nc1ccccc1)NO`, for which the half-inhibitory concentration (IC50) was > 200 nM on Histone deacetylase 9; > 200 nM on Histone deacetylase 5; 13.7 nM in [3]; > 200 nM at Histone deacetylase 4; 52.7 nM against Histone deacetylase; 126 nM in series [10]. Further, the half-life in [11] was determined as 34.8 min; in series [12] it was 22.6 min. For the same molecule, the 50% growth inhibitory concentration (GI50) with A549 [1] was found to be 4700 nM; in the series on K562 [2], 1400 nM; in the series on MCF7, 3700 nM; with HepG2, 6200 nM. The inhibition entry in series [4], in series [6], in series [7], in [8] and in [9] was “Active” in each case. In the series with A549 [13], the inhibition of tumour growth (TGI) is reported as 44%. The inhibition was 80% in [5] and “Dose-dependent effect” in series [17]. Besides, the outcome in the series on A549 [14], in the series on A549 [15] and with K562 [16] was Active.

Take `O=C(CCCSC[C@H](NC(=O)OCc1ccccc1)C(=O)Nc1cccc2ccccc12)NO`: the half-inhibitory concentration (IC50) on Histone deacetylase 9 was > 200 nM; against Histone deacetylase 5, > 200 nM; in series [3], 19.6 nM; against Histone deacetylase 4, > 200 nM; on Histone deacetylase it was 72.4 nM; in [10] it was 69.3 nM. Besides, the half-life in [11] was 3.96 min; in series [12], < 1 min. The GI50 came out at 5300 nM in the series on A549 [1], 2000 nM in the series with K562 [2], 4900 nM in the series on MCF7 and 4500 nM in the series on HepG2. For the same molecule, the inhibition entry in series [4], in series [6], in series [7], in [8] and in series [9] was “Active” in each case. For the same molecule, in series [5], the inhibition is 83%.
